SMILES	melting point [°C]
Cc1cc(C(F)(F)F)c2[nH]c3c(c2c1)CNCC3.Cl	338 to 342
COc1cc(C(F)(F)F)c2[nH]c3c(c2c1)CNCC3 [Example 23, 8-Methoxy-6-(trifluoromethyl)-2,3,4,5-tetrahydro-1H-pyrido [4,3-b]indole]	140 to 144
